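Tested at 5 concentrations; 48 h exposure; 96-well plates; endpoints linearly interpolated, else capped at highest concentration. Here, GI50 denotes the concentration required for 50% inhibition of growth. TGI is the concentration that stops growth completely.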
Columns and labels:
Assay in all cases: NCI tumour cell line growth inhibition, 48 h
[1] = system: NCI-H226 lung
[2] = system: KM12 colon
[3] = system: OVCAR-4 ovarian
[4] = system: SF-295 CNS
[5] = system: SNB-75 CNS
[6] = system: SF-539 CNS
[7] = system: HCT-116 colon
[8] = system: RPMI-8226 leukemia
[9] = system: NCI/ADR-RES ovarian
[10] = system: MDA-MB-231 breast

Row | SMILES | TGI [1] | TGI [2] | TGI [3] | TGI [4] | TGI [5] | TGI [6] | TGI [7] | TGI [8] | GI50 [1] | GI50 [2] | GI50 [3] | GI50 [4] | GI50 [5] | GI50 [6] | GI50 [7] | GI50 [8] | TGI [9] | TGI [10] | GI50 [9] | GI50 [10]
1 | CC(=O)NC(CCCCNC(=O)NCCCl)C(=O)NCc1ccccc1 (configuration not stated) | > 100 µM | > 100 µM | > 100 µM | > 100 µM | > 100 µM | > 100 µM | > 100 µM | > 100 µM | – | – | – | – | – | – | – | – | – | – | – | –
2 | C/C(CCc1ccccc1)=N\NC(N)=S | > 100 µM | > 100 µM | > 100 µM | > 100 µM | > 100 µM | > 100 µM | > 100 µM | > 100 µM | – | – | – | – | – | – | – | – | – | – | – | –
3 | NCCCCNc1ccc2c(=O)[nH][nH]c(=O)c2c1 | > 100 µM | > 100 µM | > 100 µM | > 100 µM | > 100 µM | > 100 µM | > 100 µM | – | – | – | – | – | – | – | – | – | – | – | – | –
4 | C[C@]12CCCC(=O)C1(O)C[C@H](C(=O)O)CC2 (some centres not stated) | > 100 µM | > 100 µM | > 100 µM | > 100 µM | > 100 µM | > 100 µM | > 100 µM | > 100 µM | – | – | – | – | – | – | – | – | – | – | – | –
5 | COC(=O)C(CC(=O)Nc1ccc(C)cc1)C(=O)C(=O)Nc1ccccc1C(C)C (configuration not stated) | > 100 µM | > 100 µM | > 100 µM | > 100 µM | > 100 µM | > 100 µM | > 100 µM | > 100 µM | – | – | – | – | – | – | – | – | – | – | – | –
6 | Cc1cc(S(=O)(=O)NC#N)c(S/C(=N\Nc2ccc([N+](=O)[O-])cc2)c2ccc(Cl)cc2)cc1Cl | 46.1 µM | 56.9 µM | 75 µM | 65.5 µM | > 100 µM | 28.9 µM | 26 µM | > 100 µM | 18.5 µM | 24.6 µM | 20.9 µM | 22.7 µM | 38.1 µM | 13.7 µM | 11.2 µM | 30.5 µM | – | – | – | –
7 | CCN(CC)C(=S)Oc1cc2oc(=O)cc(C)c2cc1Cl | > 100 µM | > 100 µM | > 100 µM | > 100 µM | – | > 100 µM | > 100 µM | > 100 µM | – | – | – | – | – | – | – | – | > 100 µM | > 100 µM | – | –
8 | COC(=O)C(=O)C(C(=O)C(=O)Nc1cccc(C(C)=O)c1)c1nc2ccccc2[nH]c1=O (configuration not stated) | > 100 µM | > 100 µM | > 100 µM | > 100 µM | > 100 µM | > 100 µM | – | – | – | – | – | – | – | – | – | – | – | – | – | –
9 | Cc1cc(C)c(C(=O)c2no[n+]([O-])c2C(=O)c2c(C)cc(C)c(Br)c2C)c(C)c1Br | 31.6 µM | 26.4 µM | 50 µM | 33.3 µM | 25.8 µM | 29.1 µM | 21.9 µM | 38.9 µM | – | – | – | – | – | – | – | – | – | – | – | –
10 | CN(C)CC1CCC/C1=N\O (configuration not stated) | > 100 µM | – | > 100 µM | > 100 µM | > 100 µM | > 100 µM | > 100 µM | > 100 µM | – | – | – | – | – | – | – | – | – | – | – | –
11 | CNCCn1c(=O)c2cc(OC)c(OC)cc2c2ccc3cc4c(cc3c21)OCO4 | 1.03 µM | 4.98 µM | 4.26 µM | 0.359 µM | 5.53 µM | 0.424 µM | – | 0.376 µM | 0.192 µM | 0.219 µM | 0.175 µM | 0.0346 µM | 0.127 µM | 0.133 µM | – | 0.0842 µM | 3.19 µM | 3.66 µM | 0.217 µM | 0.335 µM
12 | CC(=O)OCC(OC(C)=O)C(OC(C)=O)C(OC(C)=O)C(=O)CNn1c(-c2ccccc2Cl)nc2ccccc2c1=O (configuration not stated) | > 100 µM | > 100 µM | > 100 µM | > 100 µM | > 100 µM | > 100 µM | > 100 µM | > 100 µM | – | – | – | – | – | – | – | – | – | – | – | –
13 | CCOC(=O)/C=C1\CCCC12OCCO2 | > 100 µM | > 100 µM | > 100 µM | – | > 100 µM | > 100 µM | > 100 µM | > 100 µM | – | – | – | – | – | – | – | – | – | – | – | –
14 | CCN(CC)C(=S)SC | > 100 µM | – | – | > 100 µM | > 100 µM | > 100 µM | > 100 µM | > 100 µM | – | – | – | – | – | – | – | – | > 100 µM | > 100 µM | – | –
15 | CC[O-].CC[O-].O=S(=O)([O-])c1ccc([O-])c2ncccc12.O=S(=O)([O-])c1ccc([O-])c2ncccc12.[Ti+4] | > 100 µM | > 100 µM | > 100 µM | > 100 µM | > 100 µM | > 100 µM | > 100 µM | > 100 µM | > 100 µM | 96.5 µM | 52.9 µM | > 100 µM | 72.8 µM | 67.9 µM | 41.1 µM | > 100 µM | – | – | – | –
16 | CCOP(=O)(OCC)OC(C#N)c1ccc(-c2ccccc2)cc1 (configuration not stated) | > 100 µM | 33.2 µM | 36.6 µM | > 100 µM | 64.6 µM | 38.9 µM | 28.5 µM | 45.8 µM | – | – | – | – | – | – | – | – | – | – | – | –
17 | C/C(=N\N(c1ccccc1)c1ccccc1)c1c(O)cc(C)oc1=O | > 100 µM | > 100 µM | > 100 µM | > 100 µM | > 100 µM | > 100 µM | > 100 µM | – | – | – | – | – | – | – | – | – | – | – | – | –
18 | COc1ccc2c(c1)/C(=C\c1c(Cl)[nH]c3ccc(OC)cc13)C(=O)N2 | > 100 µM | 34.9 µM | > 100 µM | 45.8 µM | – | – | 30.6 µM | > 100 µM | 41.9 µM | 17.5 µM | 41.8 µM | 19.9 µM | – | – | 16.3 µM | 33.3 µM | > 100 µM | 75.2 µM | > 100 µM | 27.8 µM
19 | COC(=O)[C@]12CCC(C)[C@H](C)[C@H]1C1=CCC3[C@@]4(C)CC[C@H](OC(C)=O)C(C)(C)C4CC[C@@]3(C)C1(C)C(O)C2 (some centres not stated) | 83.1 µM | > 100 µM | > 100 µM | > 100 µM | > 100 µM | > 100 µM | > 100 µM | > 100 µM | – | – | – | – | – | – | – | – | – | – | – | –
20 | COC(=O)c1ccccc1NC(=O)C(=O)NNC(=O)c1ccncc1 | > 100 µM | > 100 µM | > 100 µM | > 100 µM | > 100 µM | > 100 µM | > 100 µM | – | – | – | – | – | – | – | – | – | – | – | – | –
21 | Cc1c(C(=O)NCCN2CCOCC2)cn2ncnc(Oc3ccc(NC(=O)Nc4ccc(Cl)c(C(F)(F)F)c4)cc3)c12 | – | – | 5.61 µM | 3.34 µM | – | 2.14 µM | 2.1 µM | 3.01 µM | – | – | 2.37 µM | 1.77 µM | – | 0.508 µM | 0.711 µM | 0.545 µM | 5.16 µM | 2.91 µM | 2.13 µM | 1.31 µM

— PubChem BioAssay (NCI)
